Consider 38 molecules from BindingDB's records for patent WO2025049746 (Eikon Therapeutics, 2025).

Test [1] deals with Bifunctional 3'-5' exonuclease/ATP-dependent helicase WRN (Homo sapiens, UniProt Q14191). The experiment in a line: ADP-Glo Kinase Assay. The procedure: ATPase activity was measured using the ADP-Glo Kinase Assay following the manufacturers recommended protocol.
The target in test [2] is T1, Bifunctional 3'-5' exonuclease/ATP-dependent helicase WRN [480-1251] (UniProt Q14191).
T1 construct: 480-1251
T1 sequence (Q14191 480-1251): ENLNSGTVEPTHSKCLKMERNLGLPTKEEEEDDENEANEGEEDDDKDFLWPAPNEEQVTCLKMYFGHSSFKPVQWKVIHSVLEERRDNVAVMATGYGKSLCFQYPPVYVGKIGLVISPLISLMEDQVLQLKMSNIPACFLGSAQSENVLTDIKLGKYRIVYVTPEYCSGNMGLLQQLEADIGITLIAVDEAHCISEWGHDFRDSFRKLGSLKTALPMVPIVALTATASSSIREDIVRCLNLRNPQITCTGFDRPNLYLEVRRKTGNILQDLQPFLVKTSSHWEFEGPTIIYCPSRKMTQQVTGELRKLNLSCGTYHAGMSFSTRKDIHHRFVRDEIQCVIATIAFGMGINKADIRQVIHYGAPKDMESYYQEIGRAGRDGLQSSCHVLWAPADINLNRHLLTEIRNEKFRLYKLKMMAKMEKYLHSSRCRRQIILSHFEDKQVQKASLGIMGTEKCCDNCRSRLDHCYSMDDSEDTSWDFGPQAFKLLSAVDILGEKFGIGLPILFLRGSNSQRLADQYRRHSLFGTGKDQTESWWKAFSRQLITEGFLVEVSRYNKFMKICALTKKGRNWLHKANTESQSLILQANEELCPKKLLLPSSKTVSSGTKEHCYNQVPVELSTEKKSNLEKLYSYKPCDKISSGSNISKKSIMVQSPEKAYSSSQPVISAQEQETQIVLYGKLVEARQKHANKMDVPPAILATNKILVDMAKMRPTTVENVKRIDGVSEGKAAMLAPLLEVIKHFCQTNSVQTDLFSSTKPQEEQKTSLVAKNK
Put plainly: Biochemical Activity Assays.

SMILES strings stand for the structures.

Sequence of Bifunctional 3'-5' exonuclease/ATP-dependent helicase WRN (Q14191 whole entry): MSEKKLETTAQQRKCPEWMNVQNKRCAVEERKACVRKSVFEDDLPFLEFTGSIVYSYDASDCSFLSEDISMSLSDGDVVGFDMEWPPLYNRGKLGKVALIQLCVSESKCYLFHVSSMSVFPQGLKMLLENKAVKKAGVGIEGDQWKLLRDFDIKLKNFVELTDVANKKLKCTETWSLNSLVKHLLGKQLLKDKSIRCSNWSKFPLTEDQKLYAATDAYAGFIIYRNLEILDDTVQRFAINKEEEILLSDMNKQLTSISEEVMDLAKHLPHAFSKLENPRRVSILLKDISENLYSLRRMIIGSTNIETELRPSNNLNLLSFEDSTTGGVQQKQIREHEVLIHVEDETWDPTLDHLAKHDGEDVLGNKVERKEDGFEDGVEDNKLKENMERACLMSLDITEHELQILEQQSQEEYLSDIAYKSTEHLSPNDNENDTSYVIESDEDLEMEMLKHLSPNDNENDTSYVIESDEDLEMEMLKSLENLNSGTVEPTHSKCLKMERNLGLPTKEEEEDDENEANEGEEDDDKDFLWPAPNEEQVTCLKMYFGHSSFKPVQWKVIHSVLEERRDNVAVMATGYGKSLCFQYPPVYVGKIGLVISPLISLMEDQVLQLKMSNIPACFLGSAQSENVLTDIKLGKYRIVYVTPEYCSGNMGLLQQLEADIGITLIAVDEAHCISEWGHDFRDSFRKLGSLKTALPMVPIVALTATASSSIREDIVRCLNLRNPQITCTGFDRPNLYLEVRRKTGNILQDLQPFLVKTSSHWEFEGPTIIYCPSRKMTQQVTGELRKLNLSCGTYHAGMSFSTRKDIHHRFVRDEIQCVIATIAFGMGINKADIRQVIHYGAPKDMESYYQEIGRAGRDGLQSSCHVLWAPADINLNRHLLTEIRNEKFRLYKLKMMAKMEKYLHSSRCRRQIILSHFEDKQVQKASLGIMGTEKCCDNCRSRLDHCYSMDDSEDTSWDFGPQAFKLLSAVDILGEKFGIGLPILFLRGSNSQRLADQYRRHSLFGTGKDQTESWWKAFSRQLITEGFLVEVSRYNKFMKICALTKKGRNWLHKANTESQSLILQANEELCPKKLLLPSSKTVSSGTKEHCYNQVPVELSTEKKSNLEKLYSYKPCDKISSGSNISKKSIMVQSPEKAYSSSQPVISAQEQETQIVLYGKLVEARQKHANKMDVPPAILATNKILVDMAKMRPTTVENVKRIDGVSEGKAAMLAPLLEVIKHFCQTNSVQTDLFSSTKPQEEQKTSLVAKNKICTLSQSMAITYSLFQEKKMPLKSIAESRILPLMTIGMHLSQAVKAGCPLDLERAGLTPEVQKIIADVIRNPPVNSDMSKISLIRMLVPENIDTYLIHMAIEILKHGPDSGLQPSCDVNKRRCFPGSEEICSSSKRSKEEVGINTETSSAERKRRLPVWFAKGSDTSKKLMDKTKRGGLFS

As for `CCc1c(N2CCN(C(=O)c3ncnc(C)c3O)CC2)c(=O)n2nc(-c3cccc4c3COC(C)(C)C4)nc2n1CC(=O)Nc1ccc(C(F)(F)F)cc1Cl` [WO2025049746, Example 223], the IC50 stood at 3830 nM in test [1] and 1550 nM in test [2].

In the case of `CCc1c(N2CCN(C(=O)c3ncnc(C)c3O)CC2)c(=O)n2nc(-c3cc(C)c4c(c3)CCO4)nc2n1CC(=O)Nc1ccc(C(F)(F)F)cc1Cl` [WO2025049746, Example 171], the IC50 was 58 nM in test [1] and 42 nM in test [2].

Take `CCc1c(N2CCN(C(=O)c3cn(C)[nH]c3=O)CC2)c(=O)n2nc(C3=CCOCC3)nc2n1CC(=O)Nc1ccc(C(F)(F)F)cc1Cl` [WO2025049746, Example 33]: the values for the IC50 in test [1] and in test [2] were 31 nM and 25.8 nM, respectively.

In the case of `CCc1c(N2CCN(C(=O)c3ncnc(C)c3O)CC2)c(=O)n2nc(-c3ccc4nc(N)oc4c3)nc2n1CC(=O)Nc1ccc(C(F)(F)F)cc1Cl` [WO2025049746, Example 284], the IC50 in test [1] worked out at 25 nM; in test [2] it was 26 nM.

`CCc1c(N2CCN(C(=O)c3ncnc(C)c3O)CC2)c(=O)n2nc(-c3ccc4nonc4c3)nc2n1CC(=O)Nc1ccc(C(F)(F)F)cc1Cl` [WO2025049746, Example 234]: the IC50 in test [1] turned out to be 67 nM; in test [2] it was 75 nM.

Take `CCc1c(N2CCN(C(=O)c3ncnc(C)c3O)CC2)c(=O)n2nc(-c3cc4cn(C)nc4cc3F)nc2n1CC(=O)Nc1ccc(C(F)(F)F)cc1Cl` [WO2025049746, Example 256]: the values for the IC50 in test [1] and in test [2] were 23 nM and 22 nM, respectively.

For `CCc1c(N2CCN(C(=O)c3ccccc3NS(C)(=O)=O)CC2)c(=O)n2nc(N(C)C)nc2n1CC(=O)Nc1ccc(C(F)(F)F)c2c1CC2` [WO2025049746, Example 106], the IC50 in test [1] came out at 414 nM; in test [2], 276 nM.

Regarding `CCc1c(N2CCN(C(=O)c3ccccc3NS(=O)(=O)C3CC3)CC2)c(=O)n2nc(N3C[C@H]4COC[C@H]4C3)nc2n1CC(=O)Nc1ccc(C(F)(F)F)c2c1CC2` [WO2025049746, Example 112], the IC50 in test [1] was 58.3 nM; in test [2], 45.7 nM.

Turning to `CCc1c(N2CCN(C(=O)c3ncccc3N)CC2)c(=O)n2nc(C3=CCOCC3)nc2n1CC(=O)Nc1ccc(C(F)(F)F)cc1Cl` [WO2025049746, Example 34], the IC50 in test [1] was found to be 45.1 nM; in test [2], 28.5 nM.

Turning to `CCc1c(N2CCN(C(=O)c3ncnc(C)c3O)CC2)c(=O)n2nc(-c3cnn4c3CCCC4)nc2n1CC(=O)Nc1ccc(C(F)(F)F)cc1Cl` [WO2025049746, Example 167], the half-maximal inhibitory concentration (IC50) came out at 60 nM in test [1] and 41 nM in test [2].

As for `CCc1c(N2CCN(C(=O)c3ncnc(C)c3O)CC2)c(=O)n2nc(-c3ccc4c(c3)CCO4)nc2n1CC(=O)Nc1ccc(SC(F)(F)F)cc1Cl` [WO2025049746, Example 410], the half-inhibitory concentration (IC50) in test [1] was determined as 41 nM; in test [2], 32 nM.

On to `CCc1c(N2CCN(C(=O)c3ncnc(C)c3O)CC2)c(=O)n2nc(-c3ccc4c(c3)C(=O)N(C)C4)nc2n1CC(=O)Nc1ccc(C(F)(F)F)cc1Cl` [WO2025049746, Example 186], for which the IC50 in test [1] amounted to 52 nM; in test [2] it was 45 nM.

As to `CCc1c(N2CCN(C(=O)c3ncnc(C)c3O)CC2)c(=O)n2nc(-c3ccc4c(c3)CC(=O)N4)nc2n1CC(=O)Nc1ccc(C(F)(F)F)cc1Cl` [WO2025049746, Example 325], the half-maximal inhibitory concentration (IC50) turned out to be 25 nM in test [1] and 34 nM in test [2].

Turning to `CCc1c(N2CCN(C(=O)c3ncnc(C)c3O)CC2)c(=O)n2nc(-c3cccc4sc(C)nc34)nc2n1CC(=O)Nc1ccc(C(F)(F)F)cc1Cl` [WO2025049746, Example 156], the figures for the IC50 in test [1] and in test [2] were 52 nM and 37 nM, respectively.

For the molecule `CCc1c(N2CCN(C(=O)c3ncnc(C)c3O)CC2)c(=O)n2nc(-c3cccc4c3CCO4)nc2n1CC(=O)Nc1ccc(C(F)(F)F)cc1Cl` [WO2025049746, Example 348], the IC50 in test [1] is 86 nM; in test [2], 62 nM.

As for `CCc1c(N2CCN(C(=O)c3cccc4c3NS(=O)(=O)CC4)CC2)c(=O)n2nc(-c3ccc4c(c3)COC4)nc2n1CC(=O)Nc1ccc(C(F)(F)F)cc1Cl` [WO2025049746, Example 425], the results for the IC50 in test [1] and in test [2] were 34 nM and 27 nM, respectively.

Take `CCc1c(N2CCN(C(=O)c3ncnc(C)c3O)CC2)c(=O)n2nc(-c3ccc4c(c3)CC[C@H]4OC)nc2n1CC(=O)Nc1ccc(C(F)(F)F)cc1Cl` [WO2025049746, Example 208]: the figures for the IC50 in test [1] and in test [2] were 39 nM and 34 nM, respectively.

With `CCc1c(N2CCN(C(=O)c3ncnc(C)c3O)CC2)c(=O)n2nc(-c3ccc4nc(N5CCOCC5)oc4c3)nc2n1CC(=O)Nc1ccc(C(F)(F)F)cc1Cl` [WO2025049746, Example 315], the IC50 turned out to be 34 nM in test [1] and 33 nM in test [2].

For `CCc1c(N2CCN(C(=O)c3ncnc(C)c3O)CC2)c(=O)n2nc(-c3ccc4c(c3)CCO4)nc2n1CC(=O)Nc1ccc(Cl)c(OC(F)F)c1Cl` [WO2025049746, Example 405], the IC50 stood at 44 nM in test [1] and 35 nM in test [2].

For `CCc1c(N2CCN(C(=O)c3cn(C)nc3O)CC2)c(=O)n2nc(N(C)C)nc2n1CC(=O)Nc1ccc(C(F)(F)F)c2c1CC2` [WO2025049746, Example 107], the 50% inhibitory concentration (IC50) in test [1] came out at 160 nM; in test [2], 129 nM.

With `CCc1c(N2CCN(C(=O)c3ccccc3NS(C)(=O)=O)CC2)c(=O)n2nc(N(C)C)nc2n1CC(=O)Nc1ccc(C(F)(F)F)cc1Cl` [WO2025049746, Example 82], the IC50 was found to be 58.9 nM in test [1] and 40.7 nM in test [2].

In the case of `CCc1c(N2CCN(C(=O)c3ncnc(C)c3O)CC2)c(=O)n2nc(-c3ccc4c(c3)CC(=O)N4C)nc2n1CC(=O)Nc1ccc(C(F)(F)F)cc1Cl` [WO2025049746, Example 271], the IC50 is 28 nM in test [1] and 35 nM in test [2].

`CCc1c(N2CCN(C(=O)c3ncnc(C)c3O)CC2)c(=O)n2nc(-c3cnc4c(c3)CCOC4)nc2n1CC(=O)Nc1ccc(C(F)(F)F)cc1Cl` [WO2025049746, Example 162]: the IC50 in test [1] worked out at 81 nM; in test [2], 65 nM.

Regarding `CCc1c(N2CCN(C(=O)c3ncnc(C)c3O)CC2)c(=O)n2nc(-c3ccc4c(c3)nnn4C)nc2n1CC(=O)Nc1ccc(C(F)(F)F)cc1Cl` [WO2025049746, Example 314], the IC50 in test [1] came to 32 nM; in test [2] it was 33 nM.

As to `CCc1c(N2CCN(C(=O)c3ccnc4cc[nH]c34)CC2)c(=O)n2nc(C3=CCOCC3)nc2n1CC(=O)Nc1ccc(C(F)(F)F)cc1Cl` [WO2025049746, Example 46], the IC50 in test [1] stood at 52.1 nM; in test [2], 36 nM.

Consider `CCc1c(N2CCC(N(C)C(=O)c3ncnc(C)c3O)C2)c(=O)n2nc(C3=CCOCC3)nc2n1CC(=O)Nc1ccc(C(F)(F)F)cc1Cl` (stereo unspecified) [WO2025049746, Example 339], for which the figures for the IC50 in test [1] and in test [2] were 29700 nM and 2340 nM, respectively.

For `CCc1c(N2CCN(C(=O)c3ncnc(C)c3O)CC2)c(=O)n2nc(-c3ccc4c(c3)CN(C)CC4)nc2n1CC(=O)Nc1ccc(C(F)(F)F)cc1Cl` [WO2025049746, Example 308], the IC50 in test [1] came out at 47 nM; in test [2], 49 nM.

On to `CCc1c(N2CCN(C(=O)c3ncnc(C)c3O)CC2)c(=O)n2nc(C3=CCOCC3)nc2n1CC(=O)Nc1ccc(C(F)(F)F)c2cccnc12` [WO2025049746, Example 365], for which the figures for the IC50 in test [1] and in test [2] were 63 nM and 44 nM, respectively.

Take `CCc1c(N2CCN(C(=O)c3ncnc(C)c3O)CC2)c(=O)n2nc(-c3cc4c(cc3F)O[C@H](C)C4)nc2n1CC(=O)Nc1ccc(C(F)(F)F)cc1Cl` [WO2025049746, Example 250]: the figures for the IC50 in test [1] and in test [2] were 22 nM and 20 nM, respectively.

Turning to `CCc1c(N2CCN(C(=O)C(C)n3cncn3)CC2)c(=O)n2nc(C3=CCOCC3)nc2n1CC(=O)Nc1ccc(C(F)(F)F)cc1Cl` (stereo unspecified) [WO2025049746, Example 62], the IC50 was 413 nM in test [1] and 133 nM in test [2].

With `CCc1c(N2CCN(C(=O)c3ncnc4cc[nH]c34)CC2)c(=O)n2nc(-c3ccc4c(c3)COC4)nc2n1CC(=O)Nc1ccc(C(F)(F)F)cc1Cl` [WO2025049746, Example 444], the IC50 in test [1] was 44 nM; in test [2], 40 nM.

Take `CCc1c(N2CCN(C(=O)c3ncnc(C)c3O)CC2)c(=O)n2nc(-c3ccc4c(cnn4C)c3)nc2n1CC(=O)Nc1ccc(C(F)(F)F)cc1Cl` [WO2025049746, Example 321]: the values for the IC50 in test [1] and in test [2] were 20 nM and 23 nM, respectively.

`CCc1c(N2CCN(C(=O)c3nc4c(cc3O)CCOC4)CC2)c(=O)n2nc(-c3ccc4c(c3)COC4)nc2n1CC(=O)Nc1ccc(C(F)(F)F)cc1Cl` [WO2025049746, Example 441]: the half-inhibitory concentration (IC50) is 68 nM in test [1] and 57 nM in test [2].

Take `CCc1c(N2CCN(C(=O)c3ncnc(C)c3O)CC2)c(=O)n2nc(-c3ccccc3C(=O)NC3CC3)nc2n1CC(=O)Nc1ccc(C(F)(F)F)cc1Cl` [WO2025049746, Example 269]: the IC50 came to 61 nM in test [1] and 63 nM in test [2].

For the molecule `CCc1c(N2CCN(C(=O)c3ncnc(C)c3O)CC2)c(=O)n2nc(-c3ccc4c(c3)COC4)nc2n1CC(=O)Nc1c(Cl)cc(C(F)(F)F)c2scnc12` [WO2025049746, Example 424], the results for the IC50 in test [1] and in test [2] were 47 nM and 37 nM, respectively.

Regarding `CCc1c(N2CCN(C(=O)c3ncnc(C)c3O)CC2)c(=O)n2nc(-c3ccc4c(c3)CC[C@H]4OC(F)F)nc2n1CC(=O)Nc1ccc(C(F)(F)F)cc1Cl` [WO2025049746, Example 226], the figures for the IC50 in test [1] and in test [2] were 74 nM and 98 nM, respectively.

As to `CCc1c(N2CCN(C(=O)c3ncnc(C)c3O)CC2)c(=O)n2nc(-c3cnc4ccn(C)c4c3)nc2n1CC(=O)Nc1ccc(C(F)(F)F)cc1Cl` [WO2025049746, Example 304], the values for the IC50 in test [1] and in test [2] were 32 nM and 29 nM, respectively.

Regarding `CCc1c(N2CCN(C(=O)c3ncnc(C)c3O)CC2)c(=O)n2nc(-c3ccc4c(c3)CCC(=O)N4C)nc2n1CC(=O)Nc1ccc(C(F)(F)F)cc1Cl` [WO2025049746, Example 324], the values for the half-inhibitory concentration (IC50) in test [1] and in test [2] were 25 nM and 32 nM, respectively.

The term IC50 denotes the midpoint of a concentration-inhibition curve. Low values mean greater potency, high ones weaker potency.
